Assay results from US20220202882A1, “EFFECT OF COMBINATION OF BIFIDOBACTERIUM AND BERBERINE ON PRE-DIABETES AND TYPE 2 DIABETES” (The Fourth Military Medical University, priority 2018, published 2022).
Where a name gives a salt, the structure may show the parent alone.

Tested on: pre-diabetic and type 2 diabetes mellitus patients
Assay: Clinical trial: fasting plasma glucose (FPG)
Type: in vivo, human
Settings: for Effect on fasting plasma glucose level (in words) / Post-treatment FPG - pre-treatment FPG, mean value: 16 weeks of treatment; for Effect on fasting plasma glucose level (in words): Kruskal-Wilcox test; for Post-treatment FPG - pre-treatment FPG, mean value / Post-treatment FPG, mean value / Pre-treatment FPG, mean value: FAS; for Post-treatment FPG, mean value: after 16 weeks of treatment; for Pre-treatment FPG, mean value: baseline before treatment
Experimental: From June 2015 to October 2018, a double-blind, randomized, and parallel-controlled trial, studying the effects of the combined use of Bifidobacterium and berberine on pre-diabetic and type 2 diabetes mellitus patients, was conducted in 10 research centers in Xi'an, Yan'an and Shangluo of Shaanxi province, etc., including the First Affiliated Hospital of the Fourth Military Medical University. 3) Diagnosed with impaired glucose tolerance or type 2 diabetes mellitus (5.6≤fasting plasma glucose (FPG)<8.0 mmol/L at V1 stage; 6.1≤fasting plasma glucose (FPG)<8.0<mmol/L or 7.8≤2-hour postprandial venous blood glucose (2 h-PPG)<17 mmol/L at V2 stage, please see V1 and V2 in Table 1 below); The trial included an enrollment stage of 2 weeks and a treatment stage of 16 weeks. After passing the first visit 1 (see V1 in Table 1), the subjects entered the enrollment stage, i.e., 2 weeks of lifestyle intervention, followed by a re-screening (see V2 in Table 1). The subjects were subjected to a 16-week course of treatment after passing the screening. See Table 1 for the detailed screening parameters. After the enrollment stage, the baseline data of the 300 successfully enrolled subjects were collected. Meanwhile, the subjects started to receive lifestyle guidance, and were randomly divided into four groups for 16 weeks of treatments. 1) Bifidobacterium group: the subjects were administered with Bifidobacterium capsules (Livzon Pharmaceutical Group Inc., batch no.: 20141013), 0.35 g/capsule, each capsule containing 50,000,000 viable bacteria (Bifidobacterium adolescentis DM8504), 2 capsules/time, 2 times/day, plus berberine placebo tablets (Northeast Pharma Group Shenyang First Pharma Co., Ltd., Lot no.: 20150101, containing 80.2% microcrystalline cellulose, 9.4% pregelatinized starch, 6.4% sodium carboxymethyl starch, 1% magnesium stearate, and 3% copovidone), 0.1 g/tablet, 5 tablets/time, 2 times/day. 2) Berberine group: the subjects were administered with berberine tablets (Northeast Pharma Group Shenyang First Pharma Co., Ltd., Lot no.: 130917, each tablet weighted 0.165 g and contained 0.1 g active berberine ingredient (berberine hydrochloride), with the same excipients as the placebo tablets), 5 tablets/time, 2 times/day, plus Bifidobacterium placebo capsules (Livzon Pharmaceutical Group Inc., Lot no.: 141001, specifically containing 0.348 g spray-dried lactose, and 0.002 g magnesium stearate), 0.35 g/capsule, 2 capsules/time, 2 times/day. 3) Combination Group: the subjects were administered with Bifidobacterium capsules, 0.35 g/capsule, each capsule containing 50,000,000 viable bacteria (B. adolescentis DM8504), 2 capsules/time, 2 times/day, plus berberine tablets, 0.1 g/tablet, each tablet containing 0.1 g active berberine ingredient (berberine hydrochloride), 5 tablets/time, 2 times/day. 4) Control group: the subjects were administered with Bifidobacteria placebo capsules, 0.35 g/capsule, 2 capsules/time, 2 times/day, plus berberine placebo tablets, 0.1 g/tablet, 5 tablets/time, 2 times/day. Bifidobacterium capsules were taken after meals and berberine tablets were taken before meals. After the sample testing was finished, 1) Chi-Squared test and t-test were used to evaluate the intergroup balance of the baseline data including the demographic characteristics and pre-treatment indicators, wherein the baseline data referred to those collected at the second visit, before the formal administration, the data collected at the first visit on the enrollment stage were used instead if the data at the second visit was lacking; 2) two-way disordered CM-CH11, Kruska-Wilcox test, etc. were used for analysis and intergroup comparison of pre- and post-treatment indicators such as fasting plasma glucose (FPG), HbA1c, plasma glucose at 2 hours post OGTT (2-h PPG), blood pressure, blood lipids, body weight and BMI; 3) adverse events and hypoglycemia events were described in terms of the type, frequency and relevance with the drugs, for safety evaluation. […]

Row | Molecule | Effect on fasting plasma glucose level (in words) | Post-treatment FPG - pre-treatment FPG, mean value | Post-treatment FPG, mean value | Pre-treatment FPG, mean value
1 | COc1ccc2cc3[n+](cc2c1OC)CCc1cc2c(cc1-3)OCO2 [Berberine, berberine hydrochloride] | lowered the fasting plasma glucose level significantly | -0.2450 mmol/L | 6.1300 mmol/L | 6.4700 mmol/L
2 | Bifidobacterium | no evident effect | 0.0282 mmol/L | 6.4300 mmol/L | 6.4000 mmol/L
